# Source: patent US20150025077A1 (COYOTE PHARMACEUTICALS, INC., priority 2012, published 2015)
# Key:
# [1] = test system: Rat primary motor neurons; assay: Axon extension of rat primary motor neurons; assay type: cell-based; settings: 72 hrs; read-out: EC50 (cells extending axons)
# Experimental: Rat primary motor neurons were isolated from embryonic spinal cords in accordance with the method of Henderson et al.; J Cohen and G P Wilkin (ed.), Neural Cell Culture, (1995) p69-81 which is herein incorporated by reference in its entirety. Briefly, spinal cords were dissected from day 15 embryo (E15) and incubated in a trypsin solution, and followed by DNase treatment to release spinal cord cells from tissue fragments. The cell suspension was centrifuged to remove tissue fragments. Then motor neurons were enriched by density gradient centrifugation.
# Motor neurons were cultured in serum-free neurobasal medium containing insulin, forskolin, 3-isobutyl-1-methylxanthine, neurotrophic factors, Bovine serum albumin, selenium, transferrin, putrescine, progesterone and B27 supplement in tissue culture plate coated with poly-ornithine and laminin.
# Rat primary motor neurons were prepared and cultured as described in Example 13. […] The cells extending axons were counted in five different fields for each treatment after 72 hrs. Percentage of positive cells relative to total cells in the same magnification field was calculated and the results were expressed as means+/−standard deviations, n=5.
# [2] = test system: Sod1 mutant mice; assay type: in vivo
# Text: Values represent means±SEMs.
# Subjects were weighed and tested for Grip Strength, and assigned Clinical and Neurological scores three times a week beginning at P90 and five times a week beginning at P100. The table below summarizes the experimental design of the study.
# The grip strength test assesses motor function and control of the fore- and hindpaws. Mice were allowed to grab the bars on the Chatillon DFIS-10 digital force gauge (Largo, Fla.), while being gently pulled parallel away from the bars by the tail. The maximum force measured prior to release of the subject's paw from the bar was recorded.
# Animals were scored using the scoring system tabulated below.
# [3] = test system: Sprague-Dawley rats; assay: Kainic acid induced neurodegeneration and seizure behaviors in rats (Examples 20, 21); assay type: in vivo, rat; settings: oral
# Text: Seizure behaviors were observed and scored (Ref. R. J. Racine, Modification of seizure activity by electrical stimulation: II. Motor seizure, Electroencephalogr. Clin. […] Modifications were made for the methods). Brain tissues of rats were sectioned on histology slides, and neurons in hippocampus tissues were stained by Nissl. Neurons in dentate gyrus tissues damaged by Kainic acid were quantified. The Memantine composition used in comparison refers to a commercially available NMDA receptor […]. […] Seizure behaviors were observed and scored (Ref. R. J. Racine, Modification of seizure activity by electrical stimulation: II. Motor seizure, Electroencephalogr. Clin. […] Modifications were made for the methods). Brain tissues of rats were sectioned on histology slides, and neurons in hippocampus tissues were stained by Nissl. Neurons damaged by Kainic acid and behavior scores were quantified.
# [4] = test system: HSP70; assay: HSP70 expression in neuro2A cells, western blot; assay type: cell-based, mouse; settings: for HSP70 western signal (absence of compounds = 1.00): 48 hours, GGTI-298
# Experimental: Differentiation was induced and cells incubated with geranylgeranyl transferase I inhibitor, GGTI-298. Cells were harvested and lysates were prepared and analyzed by western blot for HSP70 and HSP90. Western signals in the absence of the compounds were normalized as 1.00.
# [5] = test system: RhoA; assay: Active RhoA to total RhoA in Neuro2A cells (G-LISA, ELISA); assay type: cell-based, mouse; settings: 48 hrs, active RhoA to total RhoA as percentage of DMSO treatments
# Experimental: Mouse neuroblastoma Neuro2A cells were cultured in DMEM supplemented with 10% FBS for 24 hrs. […] Cell lysates were quantified and subjected either to active RhoA assay using G-LISA RhoA activation Assay Biochem Kit (Cytoskeleton Inc), or to total RhoA assay using Total RhoA ELISA Kit (Cytoskeleton Inc). The results were calculated as ratio of active RhoA to total RhoA and averaged from 3 biological repeats of one experiment with background subtraction. The data was presented as percentage of DMSO treatments.
# [6] = test system: SOD1 mice; assay: CatWalk gait analysis in SOD1 mice; assay type: in vivo, mouse; parameters: Hind stride length, Mean/average: unit not given beside the values
# Text: Prior to onset, there was little to no difference between the transgenic and wildtype groups. Transgenic animals tended to rely more on front paws for movement as weakness and paralysis in the hind paws progressed. This began to show around timepoint P100, coinciding with the expected onset of disease. This impairment was seen through changes in front and hind paw step cycle, print area, mean intensity, and base of support.
# [7] = test system: HSP60; assay: HSP60 gene expression in rat brain tissue, qRT-PCR; assay type: in vivo; settings: 12 mg/kg oral
# Experimental: […] Expression of selected HSPs was detected using qRT-PCR with expression of the GAPDH gene used as the control. To represent the effect of CNS-102 on HSP expression, mean fold change is calculated as CNS-102 treated/PBS treated for each HSP at each time point.
smiles,measurement,setting,value
CC(=O)CC/C=C(\C)CC/C=C(\C)CC/C=C(\C)CCC=C(C)C [CNS-102],EC50,[1],0.92 nM
same,clinical and neuroscore testing,"[2]; Sod1 mutant mice, CNS-102 12 mg/kg or Riluzole 8 mg/kg daily oral, vs vehicle",tended to outperform group D
same,neuroscore testing,"[2]; Sod1 mutant mice, several timepoints around and after P100, vs vehicle",significantly outperforms group D
same,blood and neurology examinations,[2]; more than two months of once-daily oral 12 mg/kg,no abnormalities in blood and neurology examinations
same,body weight,"[2]; wild type mice, group F (CNS-102) vs group E (vehicle)",no noticeable differences
same,toxicity or behavioral abnormalities,[2]; wildtype animals dosed with vehicle versus CNS-102 12 mg/kg daily,does not lead to obvious toxicity or behavioral abnormalities
same,Mean of Hippocampus CA3 Neurons Damaged,[3]; 3 mg/Kg rat,10.25 Arbitrary units
same,Mean of Seizure behaviors scores,[3]; 3 mg/Kg rat,27.5
same,Mean of Hippocampus CA3 Neurons Damaged,[3]; 12 mg/Kg rat,10.16 Arbitrary units
same,Mean of Seizure behaviors scores,[3]; 12 mg/Kg rat,22.5
same,Mean of Hippocampus CA3 Neurons Damaged,[3]; 25 mg/Kg rat,1.97 Arbitrary units
same,Mean of Seizure behaviors scores,[3]; 25 mg/Kg rat,25.75
same,Seizure behaviors scores,"[3]; Kainic acid, vehicle 34",18.8
same,HSP70 western signal (absence of compounds = 1.00),[4]; 100 nM,1.38
same,HSP70 western signal (absence of compounds = 1.00),[4]; 1 μM,2.05
same,HSP70 western signal (absence of compounds = 1.00),[4]; 10 μM,2.14
same,induction of HSP70 expression,[4]; various concentrations,induce expression of HSP70
same,% Relative RhoGTPase Activity,[5]; CNS-102 10 nM,103.6%
same,% Relative RhoGTPase Activity,[5]; CNS-102 100 nM,120.1%
same,"Run Duration, CNS-102 - vehicle difference of averages",[6]; P120,−1.68
same,"Stride Length, CNS-102 - vehicle difference of averages",[6]; P120,1.46
same,"Swing Speed, CNS-102 - vehicle difference of averages",[6]; P120,14.58
same,"Run Duration, Mean/average","[6]; P-42, SOD1/Vehicle 1.484746201",1.685
same,"Hind stride length, Mean/average","[6]; P-42, SOD1/Vehicle 6.359471205",6.082
same,"Swing speed, Mean/average","[6]; P-42, SOD1/Vehicle 45.8515272",41.18
same,"Run Duration, Mean/average","[6]; P-124 (+/−) 3, SOD1/Vehicle 3.461605345",1.976
same,"Hind stride length, Mean/average","[6]; P-124 (+/−) 3, SOD1/Vehicle 3.607909383",5.476
same,"Swing speed, Mean/average","[6]; P-124 (+/−) 3, SOD1/Vehicle 23.93413455",35.63
same,"HSP60 mean fold change (CNS-102 treated/PBS treated), mean ± SD",[7]; 24 h,1.26 ± 0.07
same,"HSP60 mean fold change (CNS-102 treated/PBS treated), mean ± SD",[7]; 48 h,0.89 ± 0.08
same,"HSP60 mean fold change (CNS-102 treated/PBS treated), mean ± SD",[7]; 72 h,1.72 ± 0.07
same,"HSP60 mean fold change (CNS-102 treated/PBS treated), mean ± SD",[7]; 96 h,1.57 ± 0.16
